These results are taken from patent publication US20260285857A1, “BICYCLIC AND HETEROCYCLIC AMIDE COMPOUNDS” (priority 2024, published 2026).

For this assay, the system named is immunoglobulin light chain protein WIL-FL T46L. Put plainly: Differential scanning fluorimetry (thermal shift) assay. It counts as binding. To be noted: Table B; temperature shift [Tm]compound-[Tm]vehicle; recombinant WIL-FL T46L. On the technique in general: DSF heats the sample and reads unfolding from a dye or from intrinsic fluorescence.
As for `Cc1cc(N2CC[C@](C)(c3ccccc3)C2)cn2nc(C(=O)N[C@H]3[C@@H]4CN(c5cccc(C(=O)O)n5)C[C@@H]43)nc12` [Compound 628], the DSF result was “***** (>2.5° C.=*****)”.

For the compound `Cc1cc(N2CC[C@](C)(c3ccccc3)C2)cn2nc(C(=O)N3CC4CCN(c5cccc(C(=O)O)n5)CC43)nc12` (stereo partly shown) [Compound 629], the DSF result was “***** (>2.5° C.=*****)”.

Turning to `COc1cc(N2C[C@H]3CN(C(=O)c4nc5c(C)cc(N6CC[C@](C)(c7ccccc7)C6)cn5n4)C[C@H]3C2)cc(C(=O)O)n1` [Compound 630], the DSF entry is given as “***** (>2.5° C.=*****)”. With `CCC1(c2ccccc2)CN(c2cc(C)c3nc(C(=O)N4C[C@@H]5CN(c6cccc(C(=O)O)n6)C[C@@H]5C4)nn3c2)C1` [Compound 631], the DSF result was “***** (>2.5° C.=*****)”. Regarding `Cc1cc(N2CC[C@](C)(c3ccccc3)C2)cn2nc(C(=O)NC3CC[C@@H]3Nc3cccc(C(=O)O)n3)nc12` (stereo partly shown) [Compound 635], the DSF entry is recorded as “***** (>2.5° C.=*****)”. With `Cc1cc(N2CC[C@](C)(c3ccccc3)C2)cn2nc(C(=O)N3CC4CN(c5cccc(C(=O)O)n5)CC4(C#N)C3)nc12` (stereo partly drawn) [Compound 636, 6-[3a-cyano-5-[8-methyl-6-[(3R)-3-methyl-3-phenyl-pyrrolidin-1-yl]-[1,2,4]triazolo[1,5-a]pyridine-2-carbonyl]-3,4,6,6a-tetrahydro-1H-pyrrolo[3,4-c]pyrrol-2-yl]pyridine-2-carboxylic acid], the DSF result is given as “***** (>2.5° C.=*****)”. For `Cc1cc(N2CC[C@](C)(c3ccccc3)C2)cn2nc(C(=O)N3CCc4c(nnn4C4CCC(C(=O)O)C4)C3)nc12` (stereo partly shown) [Compound 638], the DSF entry was “***** (>2.5° C.=*****)”. On to `Cc1cc(N2CC[C@](C)(c3ccccc3)C2)cn2nc(C(=O)N3CCc4c(nnn4-c4ccnc(C(=O)O)c4)C3)nc12` [Compound 639], for which the DSF entry is on record as “***** (>2.5° C.=*****)”. For `Cc1cc(N2CC[C@](C)(c3ccccc3)C2)cn2nc(C(=O)N3CCC4(CCC(c5cccc(C(=O)O)n5)C4)C3)nc12` (stereo partly drawn) [Compound 640, 6-[2-[8-methyl-6-[(3R)-3-methyl-3-phenyl-pyrrolidin-1-yl]-[1,2,4]triazolo[1,5-a]pyridine-2-carbonyl]-2-azaspiro[4.4]nonan-8-yl]pyridine-2-carboxylic acid], the DSF result is “***** (>2.5° C.=*****)”.

`Cc1cc(N2CC[C@](C)(c3ccccc3)C2)cn2nc(C(=O)NC3CC4(CCN(c5cccc(C(=O)O)n5)CC4)C3)nc12` [Compound 642, 6-[2-[[8-methyl-6-[(3R)-3-methyl-3-phenyl-pyrrolidin-1-yl]-[1,2,4]triazolo[1,5-a]pyridine-2-carbonyl]amino]-7-azaspiro[3.5]nonan-7-yl]pyridine-2-carboxylic acid]: the DSF result is “***** (>2.5° C.=*****)”. Take `Cc1cc(N2CC[C@](C)(c3ccccc3)C2)cn2nc(C(=O)N3C[C@@H]4CN(c5cccc(C(=O)O)n5)C[C@]4(C)C3)nc12` [Compound 643]: the DSF entry is “***** (>2.5° C.=*****)”. Take `Cc1cc(N2CC[C@](C)(c3ccccc3)C2)cn2nc(C(=O)N3C[C@@H]4CN(c5cccc(C(=O)O)n5)C[C@H]4C3)nc12` [Compound 644]: the DSF entry is “***** (>2.5° C.=*****)”. Turning to `Cc1cc(N2CC[C@](C)(c3ccccc3)C2)cn2nc(C(=O)N3CC4CCN(c5cccc(C(=O)O)n5)C4C3)nc12` (stereo partly shown) [Compound 645], the DSF entry is reported as “***** (>2.5° C.=*****)”. `Cc1cc(N2CC[C@](C)(c3ccccc3)C2)cn2nc(C(=O)NC3CN(c4cccc(C(=O)O)n4)CC34COC4)nc12` (stereo partly shown) [Compound 646]: the DSF entry is recorded as “***** (>2.5° C.=*****)”. As to `Cc1cc(N2CC[C@](C)(c3ccccc3)C2)cn2nc(C(=O)NCC3CCN(c4cccc(C(=O)O)n4)CC3)nc12` [Compound 647], the DSF entry is recorded as “***** (>2.5° C.=*****)”.

On to `Cc1cc(N2CC[C@](C)(c3ccccc3)C2)cn2nc(C(=O)NC3CC4(CCC4Nc4cccc(C(=O)O)n4)C3)nc12` (stereo partly drawn) [Compound 662, 6-((6-(8-methyl-6-((R)-3-methyl-3-phenylpyrrolidin-1-yl)-[1,2,4]triazolo[1,5-a]pyridine-2-carboxamido)spiro[3.3]heptan-1-yl)amino)picolinic acid], for which the DSF result is listed as “***** (>2.5° C.=*****)”. For `Cc1nc(N2CC3(CC(NC(=O)c4nc5c(C)cc(N6CC[C@](C)(c7ccccc7)C6)cn5n4)C3)C2)ccc1C(=O)O` [Compound 663] the value was “***** (>2.5° C.=*****)”; for `Cc1cc(N2CC[C@](C)(c3ccccc3)C2)cn2nc(C(=O)NC3CN(c4cccc(C(=O)O)n4)C4(COC4)C3)nc12` (stereo partly drawn) [Compound 664, 6-[7-[[8-methyl-6-[(3R)-3-methyl-3-phenyl-pyrrolidin-1-yl]-[1,2,4]triazolo[1,5-a]pyridine-2-carbonyl]amino]-2-oxa-5-azaspiro[3.4]octan-5-yl]pyridine-2-carboxylic acid], “***** (>2.5° C.=*****)”.

On to `Cc1cc(N2CC[C@](C)(c3ccccc3)C2)cn2nc(C(=O)N3CC4(C3)CN(c3cccc(C(=O)O)n3)CCO4)nc12` [Compound 665], for which the DSF entry is on record as “***** (>2.5° C.=*****)”. As for `CO[C@H]1CN(c2cccc(C(=O)O)n2)CC1NC(=O)c1nc2c(C)cc(N3CC[C@](C)(c4ccccc4)C3)cn2n1` (stereo partly shown) [Compound 666], the DSF result is given as “***** (>2.5° C.=*****)”. In the case of `Cc1cc(N2CC[C@](C)(c3ccccc3)C2)cn2nc(C(=O)NC3CC4(CCN4c4cccc(C(=O)O)n4)C3)nc12` (stereo partly shown) [Compound 667], the DSF entry is on record as “***** (>2.5° C.=*****)”. Turning to `Cc1cc(N2CC[C@](C)(c3ccccc3)C2)cn2nc(C(=O)NC3CC4CCC3N4c3cccc(C(=O)O)n3)nc12` (stereo partly shown) [Compound 668], the DSF result is given as “***** (>2.5° C.=*****)”. For `Cc1cc(N2CC[C@](C)(c3ccccc3)C2)cn2nc(C(=O)NC3COCC4(C3)CN(c3cccc(C(=O)O)n3)C4)nc12` (stereo partly drawn) [Compound 669, 6-(8-(8-methyl-6-((R)-3-methyl-3-phenylpyrrolidin-1-yl)-[1,2,4]triazolo[1,5-a]pyridine-2-carboxamido)-6-oxa-2-azaspiro[3.5]nonan-2-yl)picolinic acid] the value was “***** (>2.5° C.=*****)”. With `Cc1cc(N2CC[C@](C)(c3ccccc3)C2)cn2nc(C(=O)N3CCC4(CCC(O)(c5cccc(C(=O)O)n5)C4)C3)nc12` (stereo partly drawn) [Compound 670, 6-[8-hydroxy-2-[8-methyl-6-[(3R)-3-methyl-3-phenyl-pyrrolidin-1-yl]-[1,2,4]triazolo[1,5-a]pyridine-2-carbonyl]-2-azaspiro[4.4]nonan-8-yl]pyridine-2-carboxylic acid], the DSF entry is on record as “***** (>2.5° C.=*****)”. Take `Cc1cc(N2CC[C@](C)(c3ccccc3)C2)cn2nc(C(=O)N3CCC4(CC(=O)N(c5cccc(C(=O)O)n5)C4)C3)nc12` (stereo partly drawn) [Compound 671, 6-[7-[8-methyl-6-[(3R)-3-methyl-3-phenyl-pyrrolidin-1-yl]-[1,2,4]triazolo[1,5-a]pyridine-2-carbonyl]-3-oxo-2,7-diazaspiro[4.4]nonan-2-yl]pyridine-2-carboxylic acid]: the DSF result was “***** (>2.5° C.=*****)”.

In the case of `Cc1cc(N2CC[C@](C)(c3ccccc3)C2)cn2nc(C(=O)N3CC[C@@]4(CCN(C(=O)C5COC(C(=O)O)C5)C4)C3)nc12` (stereo partly shown) [Compound 672], the DSF entry is given as “***** (>2.5° C.=*****)”.

Take `Cc1cc(N2CC[C@](C)(c3ccccc3)C2)cn2nc(C(=O)NC3CC4(CCN(C(=O)CC(C)(O)C(=O)O)C4)C3)nc12` (stereo partly drawn) [Compound 673, 2-hydroxy-2-methyl-4-(2-(8-methyl-6-((R)-3-methyl-3-phenylpyrrolidin-1-yl)-[1,2,4]triazolo[1,5-a]pyridine-2-carboxamido)-6-azaspiro[3.4]octan-6-yl)-4-oxobutanoic acid]: the DSF entry is listed as “***** (>2.5° C.=*****)”. `Cc1cc(N2CC[C@](C)(c3ccccc3)C2)cn2nc(C(=O)N3CCC4(CCC(C5CCC(C(=O)O)CC5)C4)C3)nc12` (stereo partly drawn) [Compound 674, 4-(2-(8-methyl-6-((R)-3-methyl-3-phenylpyrrolidin-1-yl)-[1,2,4]triazolo[1,5-a]pyridine-2-carbonyl)-2-azaspiro[4.4]nonan-7-yl)cyclohexane-1-carboxylic acid]: the DSF result is listed as “***** (>2.5° C.=*****)”. `Cc1cc(N2CC[C@](C)(c3ccccc3)C2)cn2nc(C(=O)N3CCC4(CCCN4c4cccc(C(=O)O)n4)C3)nc12` (stereo partly drawn) [Compound 675, 6-(7-(8-methyl-6-((R)-3-methyl-3-phenylpyrrolidin-1-yl)-[1,2,4]triazolo[1,5-a]pyridine-2-carbonyl)-1,7-diazaspiro[4.4]nonan-1-yl)picolinic acid]: the DSF entry is “***** (>2.5° C.=*****)”. `Cc1cc(N2CC[C@](C)(c3ccccc3)C2)cn2nc(C(=O)NC3CCC34CC(O)C4)nc12` (stereo partly drawn) [Compound 676, N-(2-hydroxyspiro[3.3]heptan-7-yl)-8-methyl-6-[(3R)-3-methyl-3-phenyl-pyrrolidin-1-yl]-[1,2,4]triazolo[1,5-a]pyridine-2-carboxamide]: the DSF entry is listed as “***** (>2.5° C.=*****)”. In the case of `Cc1cc(N2CC[C@](C)(c3ccccc3)C2)cn2nc(C(=O)NC3CCC34CC(OCC(=O)O)C4)nc12` (stereo partly drawn) [Compound 677, 2-[7-[[8-methyl-6-[(3R)-3-methyl-3-phenyl-pyrrolidin-1-yl]-[1,2,4]triazolo[1,5-a]pyridine-2-carbonyl]amino]spiro[3.3]heptan-2-yl]oxyacetic acid], the DSF entry is “***** (>2.5° C.=*****)”.

Consider `Cc1cc(N2CC[C@](C)(c3ccccc3)C2)cn2nc(C(=O)NC3CC4(C3)CN(C(=O)C35CCC(C(=O)O)(CC3)OC5)C4)nc12` [Compound 678, 4-[6-[[8-methyl-6-[(3R)-3-methyl-3-phenyl-pyrrolidin-1-yl]-[1,2,4]triazolo[1,5-a]pyridine-2-carbonyl]amino]-2-azaspiro[3.3]heptane-2-carbonyl]-2-oxabicyclo[2.2.2]octane-1-carboxylic acid], for which the DSF entry is given as “***** (>2.5° C.=*****)”.

In the case of `COC(C)(CC(=O)N1CC2(CC(NC(=O)c3nc4c(C)cc(N5CC[C@](C)(c6ccccc6)C5)cn4n3)C2)C1)C(=O)O` (stereo partly shown) [Compound 679], the DSF entry is “***** (>2.5° C.=*****)”.

Take `Cc1cc(N2CC[C@](C)(c3ccccc3)C2)cn2nc(C(=O)NC3CC4(C3)CN(C(=O)C3CC(C)(C(=O)O)C3)C4)nc12` (stereo partly shown) [Compound 680]: the DSF result is given as “***** (>2.5° C.=*****)”.
